According to ChEMBL document CHEMBL2331518, “Rapid microwave-enhanced synthesis of C5-alkynyl pyranonucleosides as novel cytotoxic antitumor agents” (Bioorg Med Chem Lett, 2013):
Calls of active or inactive are those of the source. The rule behind the calls is not given here.

System: Human immunodeficiency virus 2
Test: Antiviral activity against HIV2 ROD infected in human CEM cells assessed as reduction of virus-induced cytopathicity after 4 to 5 days
Assay type: functional, organism-based
Conditions: ISOLATE ROD, CCRF-CEM

Structure (SMILES) | Activity
O=c1nc(O)c(C#Cc2ccccc2)cn1[C@@H]1O[C@H](CO)[C@@H](O)[C@H](O)[C@H]1O | inactive
O=c1[nH]c(=O)n([C@@H]2O[C@H](CO)[C@@H](O)[C@H](O)[C@H]2O)cc1C#Cc1ccccn1 | inactive

System: Human immunodeficiency virus 1
Test: Antiviral activity against HIV1 3B infected in human CEM cells assessed as reduction of virus-induced cytopathicity after 4 to 5 days
Assay type: functional, organism-based
Conditions: CCRF-CEM

Structure (SMILES) | Activity
O=c1nc(O)c(C#Cc2ccccc2)cn1[C@@H]1O[C@H](CO)[C@@H](O)[C@H](O)[C@H]1O | inactive
O=c1[nH]c(=O)n([C@@H]2O[C@H](CO)[C@@H](O)[C@H](O)[C@H]2O)cc1C#Cc1ccccn1 | inactive

System: Punta Toro virus
Test: Antiviral activity against Punta Toro virus by cell based assay
Assay type: functional, organism-based
Conditions: not given

Structure (SMILES) | Activity
O=c1nc(O)c(C#Cc2ccccc2)cn1[C@@H]1O[C@H](CO)[C@@H](O)[C@H](O)[C@H]1O | inactive
O=c1[nH]c(=O)n([C@@H]2O[C@H](CO)[C@@H](O)[C@H](O)[C@H]2O)cc1C#Cc1ccccn1 | inactive

System: Mammalian orthoreovirus 1
Test: Antiviral activity against Reovirus-1 by cell based assay
Assay type: functional, organism-based
Conditions: not given

Structure (SMILES) | Activity
O=c1nc(O)c(C#Cc2ccccc2)cn1[C@@H]1O[C@H](CO)[C@@H](O)[C@H](O)[C@H]1O | inactive
O=c1[nH]c(=O)n([C@@H]2O[C@H](CO)[C@@H](O)[C@H](O)[C@H]2O)cc1C#Cc1ccccn1 | inactive

System: Influenza B virus
Test: Antiviral activity against Influenza B virus by cell based assay
Assay type: functional, organism-based
Conditions: not given

Structure (SMILES) | Activity
O=c1nc(O)c(C#Cc2ccccc2)cn1[C@@H]1O[C@H](CO)[C@@H](O)[C@H](O)[C@H]1O | inactive
O=c1[nH]c(=O)n([C@@H]2O[C@H](CO)[C@@H](O)[C@H](O)[C@H]2O)cc1C#Cc1ccccn1 | inactive

System: Influenza A virus
Test: Antiviral activity against Influenza A virus H3N2 by cell based assay
Assay type: functional, organism-based
Conditions: not given

Structure (SMILES) | Activity
O=c1nc(O)c(C#Cc2ccccc2)cn1[C@@H]1O[C@H](CO)[C@@H](O)[C@H](O)[C@H]1O | inactive
O=c1[nH]c(=O)n([C@@H]2O[C@H](CO)[C@@H](O)[C@H](O)[C@H]2O)cc1C#Cc1ccccn1 | inactive

System: Sindbis virus
Test: Antiviral activity against Sindbis virus by cell based assay
Assay type: functional, organism-based
Conditions: not given

Structure (SMILES) | Activity
O=c1nc(O)c(C#Cc2ccccc2)cn1[C@@H]1O[C@H](CO)[C@@H](O)[C@H](O)[C@H]1O | inactive
O=c1[nH]c(=O)n([C@@H]2O[C@H](CO)[C@@H](O)[C@H](O)[C@H]2O)cc1C#Cc1ccccn1 | inactive

System: Influenza A virus
Test: Antiviral activity against Influenza A virus H1N1 by cell based assay
Assay type: functional, organism-based
Conditions: not given

Structure (SMILES) | Activity
O=c1nc(O)c(C#Cc2ccccc2)cn1[C@@H]1O[C@H](CO)[C@@H](O)[C@H](O)[C@H]1O | inactive
O=c1[nH]c(=O)n([C@@H]2O[C@H](CO)[C@@H](O)[C@H](O)[C@H]2O)cc1C#Cc1ccccn1 | inactive

System: Human respirovirus 3
Test: Antiviral activity against Parainfluenza-3 virus by cell based assay
Assay type: functional, organism-based
Conditions: not given

Structure (SMILES) | Activity
O=c1nc(O)c(C#Cc2ccccc2)cn1[C@@H]1O[C@H](CO)[C@@H](O)[C@H](O)[C@H]1O | inactive
O=c1[nH]c(=O)n([C@@H]2O[C@H](CO)[C@@H](O)[C@H](O)[C@H]2O)cc1C#Cc1ccccn1 | inactive

System: Coxsackievirus B4
Test: Antiviral activity against Coxsackie virus B4 by cell based assay
Assay type: functional, organism-based
Conditions: not given

Structure (SMILES) | Activity
O=c1nc(O)c(C#Cc2ccccc2)cn1[C@@H]1O[C@H](CO)[C@@H](O)[C@H](O)[C@H]1O | inactive
O=c1[nH]c(=O)n([C@@H]2O[C@H](CO)[C@@H](O)[C@H](O)[C@H]2O)cc1C#Cc1ccccn1 | inactive

System: Vesicular stomatitis virus
Test: Antiviral activity against Vesicular stomatitis virus by cell based assay
Assay type: functional, organism-based
Conditions: not given

Structure (SMILES) | Activity
O=c1nc(O)c(C#Cc2ccccc2)cn1[C@@H]1O[C@H](CO)[C@@H](O)[C@H](O)[C@H]1O | inactive
O=c1[nH]c(=O)n([C@@H]2O[C@H](CO)[C@@H](O)[C@H](O)[C@H]2O)cc1C#Cc1ccccn1 | inactive

System: Respiratory syncytial virus
Test: Antiviral activity against Respiratory syncytial virus Long by cell based assay
Assay type: functional, organism-based
Conditions: not given

Structure (SMILES) | Activity
O=c1nc(O)c(C#Cc2ccccc2)cn1[C@@H]1O[C@H](CO)[C@@H](O)[C@H](O)[C@H]1O | inactive
O=c1[nH]c(=O)n([C@@H]2O[C@H](CO)[C@@H](O)[C@H](O)[C@H]2O)cc1C#Cc1ccccn1 | inactive

System: Vaccinia virus
Test: Antiviral activity against Vaccinia virus Lederle by cell based assay
Assay type: functional, organism-based
Conditions: Orthopoxvirus vaccinia

Structure (SMILES) | Activity
O=c1nc(O)c(C#Cc2ccccc2)cn1[C@@H]1O[C@H](CO)[C@@H](O)[C@H](O)[C@H]1O | inactive
O=c1[nH]c(=O)n([C@@H]2O[C@H](CO)[C@@H](O)[C@H](O)[C@H]2O)cc1C#Cc1ccccn1 | inactive

System: Human alphaherpesvirus 2
Test: Antiviral activity against HSV-2 G by cell based assay
Assay type: functional, organism-based
Conditions: strain G

Structure (SMILES) | Activity
O=c1nc(O)c(C#Cc2ccccc2)cn1[C@@H]1O[C@H](CO)[C@@H](O)[C@H](O)[C@H]1O | inactive
O=c1[nH]c(=O)n([C@@H]2O[C@H](CO)[C@@H](O)[C@H](O)[C@H]2O)cc1C#Cc1ccccn1 | inactive

System: Human alphaherpesvirus 1
Test: Antiviral activity against kinase-deficient acyclovir-resistant HSV-1 KOS by cell based assay
Assay type: functional, organism-based
Conditions: not given

Structure (SMILES) | Activity
O=c1nc(O)c(C#Cc2ccccc2)cn1[C@@H]1O[C@H](CO)[C@@H](O)[C@H](O)[C@H]1O | inactive
O=c1[nH]c(=O)n([C@@H]2O[C@H](CO)[C@@H](O)[C@H](O)[C@H]2O)cc1C#Cc1ccccn1 | inactive

System: Human alphaherpesvirus 2
Test: Antiviral activity against HSV-2 Lyons by cell based assay
Assay type: functional, organism-based
Conditions: not given

Structure (SMILES) | Activity
O=c1nc(O)c(C#Cc2ccccc2)cn1[C@@H]1O[C@H](CO)[C@@H](O)[C@H](O)[C@H]1O | inactive
O=c1[nH]c(=O)n([C@@H]2O[C@H](CO)[C@@H](O)[C@H](O)[C@H]2O)cc1C#Cc1ccccn1 | inactive

System: Human alphaherpesvirus 1
Test: Antiviral activity against HSV-1 KOS by cell based assay
Assay type: functional, organism-based
Conditions: not given

Structure (SMILES) | Activity
O=c1nc(O)c(C#Cc2ccccc2)cn1[C@@H]1O[C@H](CO)[C@@H](O)[C@H](O)[C@H]1O | inactive
O=c1[nH]c(=O)n([C@@H]2O[C@H](CO)[C@@H](O)[C@H](O)[C@H]2O)cc1C#Cc1ccccn1 | inactive

System: HeLa
Test: Cytotoxicity against human HeLa cells after 72 hrs
Assay type: functional, cell-based
Conditions: not given

Structure (SMILES) | IC50 [µM]
O=c1nc(O)c(C#Cc2ccccc2)cn1[C@@H]1O[C@H](CO)[C@@H](O)[C@H](O)[C@H]1O | 5.4
O=c1[nH]c(=O)n([C@@H]2O[C@H](CO)[C@@H](O)[C@H](O)[C@H]2O)cc1C#Cc1ccccn1 | 66

System: L1210
Test: Cytotoxicity against mouse L1210 cells after 48 hrs
Assay type: functional, cell-based
Conditions: L1210, 48 h

Structure (SMILES) | IC50 [µM]
O=c1nc(O)c(C#Cc2ccccc2)cn1[C@@H]1O[C@H](CO)[C@@H](O)[C@H](O)[C@H]1O | 6.2
O=c1[nH]c(=O)n([C@@H]2O[C@H](CO)[C@@H](O)[C@H](O)[C@H]2O)cc1C#Cc1ccccn1 | 71

System: CCRF-CEM
Test: Cytotoxicity against human CEM cells after 72 hrs
Assay type: functional, cell-based
Conditions: not given

Structure (SMILES) | IC50 [µM]
O=c1nc(O)c(C#Cc2ccccc2)cn1[C@@H]1O[C@H](CO)[C@@H](O)[C@H](O)[C@H]1O | 5.2
O=c1[nH]c(=O)n([C@@H]2O[C@H](CO)[C@@H](O)[C@H](O)[C@H]2O)cc1C#Cc1ccccn1 | 79
